Assay results: patent US20230382920A1, “SHMT Inhibitors” (The Trustees of Princeton University, priority 2020, published 2023)
Like-named read-outs stand apart in the source and are kept apart here.

Key:
[1] = Pharmacokinetics study of KDG-0271 in male CD1 mice (Example 4); assay type: in vivo; conditions: for F: bioavailability vs 1 mg/kg IV; for AUC(0-inf) / AUC(0-t) / Cmax / Tmax / half-life / concentration at 0.25 h / concentration at 0.5 h / concentration at 1 h / concentration at 2 h / concentration at 4 h / concentration at 8 h / MRT inf: mouse, plasma; for MRT inf: read-out: MRTInf_obs
Method: A standard PK study of KDG-0271 was performed in male CD1 mice dosed with a single intravenous, oral or intraperitoneal dose of KDG-0271. The parameters of the PK study are described in Table 26. Dosing solutions were freshly made prior to use, and were in the form of a suspension. […] For IV and IP, after collection, plasma samples from the same time point were pooled, and the pooled samples were analyzed by LC/MS/MS.
Sample preparation and analysis were conducted in accordance with the method described in Example 3.
(§1) BLOQ=Below quantifiable limit of 1 ng/mL. PK parameters were estimated by non-compartmental model using WinNonlin 6.1. The PO bioavailability (F %) was calculated as following:
(§2) AUClast-PO/AUCINF-PO>80%: F=(AUCINF-PO*DoseIV)/(mean AUCINF-IV*DosePO) AUClast-PO/AUCINF-PO≤80% or AUCINF was not available: F=(AUClast-PO*DoseIV)/(mean AUClast-IV*DosePO).
(§3) The IP bioavailability (F %) was calculated as following:
(§4) AUClast-IP/AUCINF-IP>80%: F=(AUCINF-IP*DoseIV)/(mean AUCINF-IV*DoseIP) AUClast-IP/AUCINF-IP≤80% or AUCINF was not available: F=(AUClast-IP*DoseIV)/(mean AUClast-IV*DoseIP).

[2] = Pharmacokinetics study of KDG-0388 in male CD1 mice (Example 2); assay type: in vivo; conditions: for F: bioavailability vs 1 mg/kg IV; for MRT inf: read-out: MRTInf_obs
Method: A standard PK study of KDG-0388 was performed in male CD1 mice dosed with a single oral or intraperitoneal dose of KDG-0388. The parameters of the PK study are described in Table 10. Dosing solutions were freshly made prior to use, and were in the form of a suspension. […] For IV and IP, after collection, plasma samples from the same time point were pooled, and the pooled samples were analyzed by LC/MS/MS.
The desired serial concentrations of working solutions were achieved by diluting stock solution of analyte with 50% acetonitrile in water solution. 5 μL of working solutions (2, 4, 10, 20, 100, 400, 2000, 4000 ng/mL) were added to 10 μL of blank CD1 mouse plasma to achieve calibration standards of 1-2000 ng/mL (1, 2, 5, 10, 50, 200, 1000, 2000 ng/mL) in a total volume of 15 μL. Five quality control (QC) samples at 2 ng/mL, 5 ng/mL, 50 ng/mL, 800 ng/mL and 1600 ng/mL for plasma were prepared independently of those used for the calibration curves. These QC samples were prepared on the day of analysis in the same way as calibration standards.
15 μL standards, 15 μL QC samples and 15 μL unknown samples (10 μL plasma with 5 μL blank solution) were added to 200 μL of acetonitrile containing IS mixture for precipitating protein. Then, the samples were vortexed for 30 seconds. After centrifugation at 4 degrees Celsius, 4000 rpm for 15 minutes, the supernatant was diluted three times with water. 25 μL of diluted supernatant was injected into the LC/MS/MS system for quantitative analysis.
as §1, §2, §3, §4

[3] = 30 mg/kg IP, read-out: Concentration IP_Mean
[4] = 50 mg/kg PO, read-out: Concentration PO_Mean
[5] = male, mouse, plasma, CD1 mice, 1 mg/kg IV
[6] = male, mouse, CD1 mice, plasma, 1 mg/kg IV, read-out: Concentration IV_Mean
[7] = mouse, plasma, male CD1 mice, 200 mg/kg IP
[8] = mouse, plasma, male CD1 mice, 200 mg/kg PO
[9] = mouse, male CD1 mice, plasma, 200 mg/kg IP, read-out: Concentration IP_Mean
[10] = mouse, male CD1 mice, plasma, 200 mg/kg PO, read-out: Concentration PO_Mean

`Cc1n[nH]c2c1C(c1cc(C#CC3CN(C(=O)OC(C)(C)C)C3)cc(CO)c1)(C(C)C)C(C#N)=C(N)O2` (stereo not shown) [KDG-0271, tert-butyl 3-[2-(3-[6-amino-5-cyano-4-isopropyl-3-methyl-1H-pyrano[2,3-c]pyrazol-4-yl]-5-(hydroxymethyl)phenyl)ethynyl]azetidine-1-carboxylate] showed an AUC_%Extrap_obs ([1]; 30 mg/kg IP) of 2.65%, an AUClast/D ([1]; 30 mg/kg IP) of 174 kg·ng·h/mL/mg and an F ([1]; 30 mg/kg IP) of 179%. For the same compound, the AUC_%Extrap_obs ([1]; 50 mg/kg PO) was 0.172%, the AUClast/D ([1]; 50 mg/kg PO) was 38.1 kg·ng·h/mL/mg and the F ([1]; 50 mg/kg PO) was 38.1%. It also gave an AUC(0-inf) ([1]; 30 mg/kg IP) of 5360 ng·h/mL, an AUC(0-t) ([1]; 30 mg/kg IP) of 5220 ng·h/mL and a Cmax ([1]; 30 mg/kg IP) of 3170 ng/mL. It also gave a Tmax ([1]; 30 mg/kg IP) of 0.25 h, a half-life ([1]; 30 mg/kg IP) of 1.6 h and a concentration at 0.25 h [1, 3] of 3170 ng/mL. It also gave a concentration at 0.5 h [1, 3] of 2420 ng/mL, a concentration at 1 h [1, 3] of 1580 ng/mL and a concentration at 2 h [1, 3] of 841 ng/mL. The concentration at 4 h [1, 3] was 317 ng/mL, the concentration at 8 h [1, 3] was 61.4 ng/mL and the MRT inf ([1]; 30 mg/kg IP) was 1.98 h. The AUC(0-inf) ([1]; 50 mg/kg PO) was 1910 ng·h/mL, the AUC(0-t) ([1]; 50 mg/kg PO) was 1900 ng·h/mL and the Cmax ([1]; 50 mg/kg PO) was 872 ng/mL. It also gave a Tmax ([1]; 50 mg/kg PO) of 0.5 h, a half-life ([1]; 50 mg/kg PO) of 0.851 h and a concentration at 0.25 h [1, 4] of 750 ng/mL. The concentration at 0.5 h [1, 4] was 872 ng/mL, the concentration at 1 h [1, 4] was 857 ng/mL and the concentration at 2 h [1, 4] was 350 ng/mL. The concentration at 4 h [1, 4] was 72 ng/mL, the concentration at 8 h [1, 4] was 2.67 ng/mL and the MRT inf ([1]; 50 mg/kg PO) was 1.49 h. For the same compound, the clinical symptoms ([1]; single dose 1 mg/kg IV, 50 mg/kg PO or 30 mg/kg IP, entire experiment) was “No abnormal clinical symptoms were observed”.
`Cc1n[nH]c2c1C(c1cc(C#C[C@H]3C[C@@H](NC(=O)OC(C)(C)C)C3)cc(CO)c1)(C(C)C)C(C#N)=C(N)O2` (stereo partly shown) [KDG-0388, tert-butyl N-[(1s,3s)-3-[2-(3-[6-amino-5-cyano-4-isopropyl-3-methyl-1H-pyrano[2,3-c]pyrazol-4-yl]-5-(hydroxymethyl)phenyl)ethynyl]cyclobutyl]carbamate] gave an AUC_%Extrap_obs ([2]; CD1 mice, 1 mg/kg IV) of 3.44%, an AUClast/D ([2]; CD1 mice, 1 mg/kg IV) of 76.6 kg·ng·h/mL/mg and a Cl_obs ([2]; CD1 mice, 1 mg/kg IV) of 210 mL/min/kg. For the same compound, the Vss_obs ([2]; CD1 mice, 1 mg/kg IV) was 8.80 L/kg, the “Concentration IV_Mean” value ([2]; CD1 mice, plasma, 1 mg/kg IV, 8 h) was “BLOQ” and the AUC_%Extrap_obs ([2]; male CD1 mice, 200 mg/kg IP) was 6.08%. For the same compound, the AUClast/D ([2]; male CD1 mice, 200 mg/kg IP) was 136 kg·ng·h/mL/mg, the F ([2]; male CD1 mice, 200 mg/kg IP) was 183% and the AUC_%Extrap_obs ([2]; male CD1 mice, 200 mg/kg PO) was 0.218%. For the same compound, the AUClast/D ([2]; male CD1 mice, 200 mg/kg PO) was 16.9 kg·ng·h/mL/mg, the F ([2]; male CD1 mice, 200 mg/kg PO) was 21.4% and the “Concentration PO_Mean” value ([2]; male CD1 mice, plasma, 200 mg/kg PO, 24 h) was “BLOQ”. The clinical symptoms ([2]; male CD1 mice, single dose 200 mg/kg PO or 200 mg/kg IP, entire experiment) was “No abnormal clinical symptoms were observed”, the AUC(0-inf) [2, 5] was 79.3 ng·h/mL and the AUC(0-t) [2, 5] was 76.6 ng·h/mL. The C0 [2, 5] was 325 ng/mL, the half-life [2, 5] was 1.11 h and the MRT inf [2, 5] was 0.698 h. The concentration at 0.083 h ([2]; male, mouse, CD1 mice, plasma, 1 mg/kg IV, 0.083 h, read-out: Concentration IV_Mean) was 186 ng/mL, the concentration at 0.25 h [2, 6] was 60.6 ng/mL and the concentration at 0.5 h [2, 6] was 24.9 ng/mL. For the same compound, the concentration at 1 h [2, 6] was 11.8 ng/mL, the concentration at 2 h [2, 6] was 4.86 ng/mL and the concentration at 4 h [2, 6] was 1.71 ng/mL. For the same compound, the AUC(0-inf) [2, 7] was 29000 ng·h/mL, the AUC(0-t) [2, 7] was 27200 ng·h/mL and the Cmax [2, 7] was 7520 ng/mL. For the same compound, the Tmax [2, 7] was 0.25 h, the half-life [2, 7] was 7.88 h and the MRT inf [2, 7] was 6.33 h. The AUC(0-inf) [2, 8] was 3400 ng·h/mL, the AUC(0-t) [2, 8] was 3390 ng·h/mL and the Cmax [2, 8] was 719 ng/mL. It also gave a Tmax [2, 8] of 2 h, a half-life [2, 8] of 1.69 h and an MRT inf [2, 8] of 3.53 h. It also gave a concentration at 0.25 h [2, 9] of 7520 ng/mL, a concentration at 0.5 h [2, 9] of 6170 ng/mL and a concentration at 1 h [2, 9] of 5460 ng/mL. The concentration at 2 h [2, 9] was 3910 ng/mL, the concentration at 4 h [2, 9] was 2230 ng/mL and the concentration at 8 h ([2]; mouse, male CD1 mice, plasma, 200 mg/kg IP, 8 h, read-out: Concentration IP_Mean) was 633 ng/mL. The concentration at 16 h [2, 9] was 247 ng/mL, the concentration at 24 h ([2]; mouse, male CD1 mice, plasma, 200 mg/kg IP, 24 h, read-out: Concentration IP_Mean) was 155 ng/mL and the concentration at 0.25 h [2, 10] was 215 ng/mL. The concentration at 0.5 h [2, 10] was 347 ng/mL, the concentration at 1 h [2, 10] was 475 ng/mL and the concentration at 2 h [2, 10] was 719 ng/mL. The concentration at 4 h [2, 10] was 417 ng/mL, the concentration at 8 h ([2]; mouse, male CD1 mice, plasma, 200 mg/kg PO, 8 h, read-out: Concentration PO_Mean) was 84.3 ng/mL and the concentration at 16 h [2, 10] was 3.04 ng/mL.
